Assay results as given in patent publication US20260240851A1, “Treatment of Parkinson's Disease in a Patient Using a Glucocerebrosidase Activator” (BIAL - R&D Investments, S.A., priority 2023, published 2026).
Where two headings read alike, the source gives them in different places.

Assays:
[1] = LTI-291-004: safety and tolerability; assay type: in vivo, human
Experimental: This study was a Phase 1B, randomized, double-blind, placebo-controlled, multiple oral dose study of Compound A in 14 subjects (aged 51 to 81 years) with GBA-PD. The objectives of this study were to investigate the safety, tolerability, and PK of multiple once-daily oral administration of Compound A and to explore the accompanying pharmacodynamic changes. Subjects received once-daily oral doses of 10 mg (n=6) or 60 mg (2×30 mg capsules) (n=6) Compound A or placebo (n=2) for 28 consecutive days. PK samples were measured once on Day 7 and Day 14 and 4 times after the last dose on Day 28. Plasma concentrations were summarized at each time point, and no PK parameters were estimated. The PD evaluations included fMRI measures; FDG-PET to determine the metabolic rate of glucose in specific regions of the brain; and functional outcome measures (MDS-UPDRS Part III and the MMSE). GluCer, GluSph, and LacCer and other sphingolipids were measured in PBMCs and plasma as biomarkers of pharmacological effect.

[2] = LTI-291-002 multiple ascending dose study: plasma and CSF pharmacokinetics; assay type: in vivo, human
Experimental: This study was a phase 1, randomized, double-blind, placebo-controlled, multiple ascending dose study of Compound A in 4 cohorts of middle-aged to elderly healthy participants (aged 52 to 75 years). […] A total of 39 healthy subjects were enrolled in 4 sequential cohorts. Subjects in each cohort received once-daily oral doses of 3 mg (n=7), 10 mg (n=8), 30 mg (n=8), or 60 mg (n=8) Compound A or placebo (n=8) for 14 days. Pharmacokinetic parameters were determined for each dose at Day 1, Day 7, and Day 14. Cerebrospinal fluid samples for Compound A concentrations were measured before the first dose and 4 hours after the last dose for each dose level. GluCer, glucosyl sphingosine (GluSph), and lactosyl-ceramide (LacCer) were measured in plasma, PBMCs, and CSF as biomarkers of pharmacological effects. Pharmacodynamic measurements consisted of battery of CNS (NeuroCart®) assessments including Saccadic Eye Movements, Smooth Pursuit Eye Movements, Adaptive Tracking, Body Sway, Visual Verbal Learning Test, and pharmaco-EEG.

[3] = 3 mg daily, dose 1, geometric mean
[4] = 3 mg daily, dose 7, geometric mean
[5] = 3 mg daily, dose 14, geometric mean
[6] = 10 mg daily, dose 1, geometric mean
[7] = 10 mg daily, dose 7, geometric mean
[8] = 10 mg daily, dose 14, geometric mean
[9] = 30 mg daily, dose 1, geometric mean
[10] = 30 mg daily, dose 7, geometric mean
[11] = 30 mg daily, dose 14, geometric mean
[12] = 60 mg daily, dose 1, geometric mean
[13] = 60 mg daily, dose 7, geometric mean
[14] = 60 mg daily, dose 14, geometric mean
[15] = human, plasma, oral, 3 mg, 3 mg daily, dose 1, geometric mean
[16] = human, plasma, oral, 3 mg, 3 mg daily, dose 7, geometric mean

CCCCCO[C@H]1CC[C@H](NC(=O)c2cnn3c(C)cc(C)nc23)CC1 [Compound A, 5,7-dimethyl-N-((1S*,4S)-4-(pentyloxy)cyclohexyl)pyrazolo[1,5-a]pyrimidine-3-carboxamide]
deaths, SAEs, severe AEs ([1]; 10 or 60 mg daily for 28 days): No deaths, other SAEs, or severe AEs
relatedness of AEs to study treatment ([1]; in vivo): None of the AEs were considered related to the study treatment
vital signs, laboratory safety assessments, physical examinations, ECG parameters ([1]; in vivo): no clinically significant safety observations
AUC0-inf/dose [2, 3]: 818 ng·h/mL/mg
Cmax/dose [2, 3]: 29.7 ng/mL/mg
AUC0-inf/dose [2, 4]: 1570 ng·h/mL/mg
Accumulation Index [2, 4]: 2.45
Cavg [2, 4]: 80.1 ng/mL
Cmax/dose [2, 4]: 47.2 ng/mL/mg
AUC0-inf/dose [2, 5]: 2520 ng·h/mL/mg
Accumulation Index [2, 5]: 2.78
Cavg [2, 5]: 115 ng/mL
Cmax/dose [2, 5]: 51.0 ng/mL/mg
Fluctuation [2, 5]: 52.9%
AUC0-inf/dose [2, 6]: 613 ng·h/mL/mg
Cmax/dose [2, 6]: 30.7 ng/mL/mg
AUC0-inf/dose [2, 7]: 1780 ng·h/mL/mg
Accumulation Index [2, 7]: 2.29
Cavg [2, 7]: 322 ng/mL
Cmax/dose [2, 7]: 50.5 ng/mL/mg
AUC0-inf/dose [2, 8]: 1860 ng·h/mL/mg
Accumulation Index [2, 8]: 2.49
Cavg [2, 8]: 313 ng/mL
Cmax/dose [2, 8]: 49.3 ng/mL/mg
Fluctuation [2, 8]: 76.0%
AUC0-inf/dose [2, 9]: 753 ng·h/mL/mg
Cmax/dose [2, 9]: 29.0 ng/mL/mg
AUC0-inf/dose [2, 10]: 1890 ng·h/mL/mg
Accumulation Index [2, 10]: 2.11
Cavg [2, 10]: 1100 ng/mL
Cmax/dose [2, 10]: 53.3 ng/mL/mg
AUC0-inf/dose [2, 11]: 4620 ng·h/mL/mg
Accumulation Index [2, 11]: 5.22
Cavg [2, 11]: 1090 ng/mL
Cmax/dose [2, 11]: 50.0 ng/mL/mg
Fluctuation [2, 11]: 58.1%
AUC0-inf/dose [2, 12]: 655 ng·h/mL/mg
Cmax/dose [2, 12]: 32.6 ng/mL/mg
AUC0-inf/dose [2, 13]: 2310 ng·h/mL/mg
Accumulation Index [2, 13]: 2.72
Cavg [2, 13]: 2170 ng/mL
Cmax/dose [2, 13]: 53.2 ng/mL/mg
AUC0-inf/dose [2, 14]: 2160 ng·h/mL/mg
Accumulation Index [2, 14]: 2.53
Cavg [2, 14]: 2120 ng/mL
Cmax/dose [2, 14]: 51.2 ng/mL/mg
Fluctuation [2, 14]: 67.6%
total exposure (Cmax and AUC0-24) versus dose ([2]; 3 to 60 mg, after 1st, 7th and 14th dose): increase in a dose proportional manner
Kp at 4 h ([2]; human, CSF and plasma, oral, after the 14th daily dose, across dose levels, read-out: CSF-to-plasma concentration ratio, mean): 0.0122 to 0.0128
half-life ([2]; human, in vivo, oral, multiple doses, read-out: t½ after multiple doses in Trial LTI-291-002): 25 to 35 h
AUC(0-inf) [2, 15]: 2450 ng·h/mL
Cmax [2, 15]: 89.1 ng/mL
AUC(0-t) ([2]; human, plasma, oral, 3 mg, 3 mg daily, dose 1, geometric mean, read-out: AUC0-24): 1050 ng·h/mL
AUC(0-t) ([2]; human, plasma, oral, 3 mg, 3 mg daily, dose 1, geometric mean, read-out: AUC0-last): 1040 ng·h/mL
half-life ([2]; human, plasma, oral, 3 mg, 3 mg daily, dose 1, geometric mean, read-out: t½ (converted)): 27.9 h
AUC(0-inf) [2, 16]: 4720 ng·h/mL
Cmax [2, 16]: 142 ng/mL
AUC(0-t) ([2]; human, plasma, oral, 3 mg, 3 mg daily, dose 7, geometric mean, read-out: AUC0-24): 1920 ng·h/mL
